A short description of the test: GSK PKIS2: Screen against O. lienalis microfilariae, single point, at 3.1uM to assess reduction in motility. Compounds were also tested for cytotoxicity against Rhesus Monkey LLCMK2 cells. As to conditions: CELL_LINE LLCMK2; CELL_SUPPLIER ECACC; CONC 3.1 uM; ORGANISM_SUPPLIER Extracted from peri-umbilical skin obtained from naturally infected cattle in the UK; temperature 37 degree C. Format: functional, Onchocerca lienalis, LLC-MK2.

Turning to `CC[C@@H]1CO[C@H](C(=O)Nc2ccccc2)CN1c1cc(-c2ccc3c(N)n[nH]c3c2)nc(NC)n1`, the “MOTILITY REDUCTION/CYTOTOXICITY” value is on record as 0%. Turning to `O=C(Nc1[nH]nc2cc(-c3ccccc3F)ccc12)C1CC1`, the “MOTILITY REDUCTION/CYTOTOXICITY” value turned out to be 0%. To `CCn1c(-c2c(N)noc2C)nc2cnccc21` belongs 0%; to `Cc1cccc(Cn2ccn3c(=O)cc(N4CCOCC4)nc23)c1`, 0%; to `CN1C(=O)C(Nc2ccc(Cl)c(C(=O)O)c2)=C(c2ccc(Cl)cc2)C1=O`, 0%.

For `CC(C)c1nc(-c2cccc(NS(=O)(=O)c3c(F)cccc3F)c2)c(-c2ccnc(Nc3ccc(N4CCOCC4)nc3)n2)s1`, the “MOTILITY REDUCTION/CYTOTOXICITY” value is 0%. To `Nc1nc(-c2ccccc2F)c(-c2ccnc3ccccc23)s1` belongs 46.7%; to `CNc1nccc(-c2c(-c3ccc(F)cc3)ncn2CCCN2CCOCC2)n1`, 0%; to `COc1cc2c(Nc3cccc(NC(=O)c4ccccc4)c3)ncnc2cc1OCCCN1CCOCC1`, 0%. To `O=S(=O)(c1cccc(F)c1)c1ccc(Nc2ncnc3cc(Br)sc23)cc1Cl` belongs 73.4%; to `Cc1nn2c(=O)cc(N3CCOCC3)nc2n1Cc1cccc(Cl)c1Cl`, 0%; to `CN(c1ccc2c(c1)nc(NCc1ccccc1)n2C)c1ccnc(Nc2ccc(CS(C)(=O)=O)cc2)n1`, 0%. Turning to `Cc1ccc(NC(=O)c2ccc(Cl)c(Cl)c2)cc1-c1ccc(C(=O)Nc2ccncc2)cc1`, the “MOTILITY REDUCTION/CYTOTOXICITY” value is recorded as 26.7%. To `COc1ccccc1-c1ccc2c(NC(=O)C3CC3)n[nH]c2n1` belongs 0%; to `COc1ccccc1C1=C(Nc2ccc(O)c(Cl)c2)C(=O)NC1=O`, 0%; to `Cc1ccc(NC(=O)Nc2ccccc2)cc1-c1ccc(C(=O)Nc2ccncc2)cc1`, 100%. To `NCC(NCc1ccc(-c2ccnc3[nH]ccc23)s1)c1ccccc1` (stereo not given) belongs 0%.

With `CC1=C(C(=O)Nc2cc3cn[nH]c3cc2F)C(c2ccc(C(F)(F)F)cc2)CC(=O)N1` (stereo not given), the “MOTILITY REDUCTION/CYTOTOXICITY” value is on record as 0%. `CCS(=O)(=O)c1ccc(OC)c(Nc2ncc(-c3ccc(F)cc3)o2)c1`: the “MOTILITY REDUCTION/CYTOTOXICITY” value is given as 0%. Turning to `COc1ccc(Nc2nccc(NCCNC(=O)c3cc4ccccc4s3)n2)cc1`, the “MOTILITY REDUCTION/CYTOTOXICITY” value turned out to be 16.7%.

These data come from ChEMBL document CHEMBL3988181, “GlaxoSmithKline Published Kinase Inhibitor Set 2 Onchocerca lienalis Screening Data”.
